Laboratory results: patent US12616698B2, “Methods for reducing liver fat and for treating fatty liver disorders” (Corcept Therapeutics Incorporated, priority 2021, dated 2026)

Tested on: C57BL/6J male mice
Assay: AMLN diet NASH mouse model, drug provided in the AMLN diet
Assay type: in vivo
Details: 60 mg/kg mifepristone in AMLN diet, 8 weeks, vs diet-alone control (FIG. 8A)
Experimental: Two studies were conducted in C57BL/6J male mice (n=12 per group) maintained on a diet high in fat (40%), cholesterol (2%) and fructose (20%; referred to as the AMLN diet: see, e.g., Tolbol et al., World Journal of Gastroenterology, 24(2):179-194 (2018)) for 42 weeks before dosing with miricorilant was initiated. In the first study, all animals ate the AMLN diet, and received either placebo, 30 mg/kg miricorilant, or 60 mg/kg mifepristone once per day orally. […] All animals received the AMLN diet for 42 weeks prior to receiving their first dose of study drug or placebo. 4 weeks prior to receiving that first dose, a liver biopsy and histological examination of biopsy tissue was performed for each animal; 3 weeks prior to receiving that first dose, animals were randomized into three groups: control, miricorilant, or mifepristone. Only mice with fibrosis stage >=1 and steatosis score >=2 were allowed in the study and the groups were stratified according to liver col1a1 so that each study group had similar overall distributions of liver col1a1 among the mice. All animals continued on the study diet for the 3 weeks following randomization, at which time study drug or placebo administration began. All animals received their assigned drugs for 8 weeks (the 8 week in vivo study period). At 56 days (week 8) after initiation of drug administration, plasma ALT, AST, triglycerides, total cholesterol, and miricorilant levels were measured, and animals were sacrificed, liver necropsies were performed, liver histological ((NAFLD Activity Score, Fibrosis Stage, steatosis (scored using hematoxylin and eosin staining (HE)), col1a (scored using immunohistochemistry (IHC)) and Galectin-3 (IHC)) and liver biochemical measurements (including liver triglycerides and total cholesterol) were made, and liver and plasma samples were obtained for genetic ((e.g., RNA sequencing) and other analyses.
Thus, in these studies, the mice were subjected to a liver biopsy approximately 4 weeks before initiation of dosing with miricorilant and only mice with confirmed fibrosis (fibrosis stage ≥1) and steatosis (score ≥2) were entered into the study. At the end of the dosing period, blood samples were collected for determination of plasma ALT, AST, triglycerides, total cholesterol, and miricorilant. Liver samples were collected for analysis of triglycerides, total cholesterol, hydroxyproline, and histopathology. Body weight and food consumption were monitored throughout the study.
Type I collagen IHC staining Type I collagen (Southern Biotech, Cat. 1310-01) IHC were performed using standard procedures. Briefly, after antigen retrieval and blocking of endogenous peroxidase activity, slides were incubated with primary antibody. The primary antibody was detected using a polymeric HRP-linker antibody conjugate. Next, the primary antibody was visualized with DAB as chromogen. Finally, sections were counterstained in hematoxylin and cover-slipped.
Liver Galectin-3 content Galectin-3 (Biolegend, Cat. #125402) IHC was performed using standard procedures. Briefly, after antigen retrieval and blocking of endogenous peroxidase activity, slides were incubated with primary antibody. The primary antibody was detected using a linker secondary antibody followed by amplification using a polymeric HRP-linker antibody conjugate. Next, the primary antibody was visualized with DAB as chromogen. Finally, sections were counterstained in hematoxylin and cover-slipped.
Total liver col1a1 was evaluated from liver samples stained with anti-type I collagen (col1a1) (Southern Biotech, cat. 1310-01) at the end of the treatment period (typically using low power (20×) magnification). Galectin-3 content was evaluated from images of liver samples stained with anti-Galectin-3 (BioLegend, Cat. 125402) at the end of the treatment period (typically using low power (20×) magnification). Terminal relative (left) and total (right) liver type I Collagen (Col1a1) quantification was determined by morphometry. […]

## CC#C[C@]1(O)CC[C@H]2[C@@H]3CCC4=CC(=O)CCC4=C3[C@@H](c3ccc(N(C)C)cc3)C[C@@]21C [mifepristone, reference compound]
  Liver weight at termination of the study: significantly increased
